Laboratory results taken from US9221832B2, “Heterocyclic amide derivatives as P2X7 receptor antagonists” (ACTELION PHARMACEUTICALS LTD., priority 2011, dated 2015).
pIC50: −log10 of the molar value.

Target: human recombinant P2X7 receptor (Homo sapiens (Human), UniProt Q99572)
Assay: YO-PRO assay: P2X7 receptor antagonistic activity
Assay type: cell-based
Conditions: HEK cells expressing human P2X7
Procedure: The P2X7 receptor antagonistic activity of the compounds of formula (I) is determined in accordance with the following experimental method.
Cell Line Generation and YO-PRO Assay
Cell line generation was performed in general according to established molecular cloning protocols. Specifically, RNA was extracted from human whole blood using the Qiagen RNeasy kit (Qiagen, CH) according to the manufacturer's instructions. Subsequently cDNA was made (Superscript II, Invitrogen AG, CH) and the human P2X7 gene (genbank ref. BC011913) was amplified with the following primers: […] and […]. The amplified sequence was subsequently ligated into a pcDNA3.1 (+) NotI, NheI digested plasmid. […] Following a 24 h exposure to DNA, cells were trypsinized and re-seeded at low density in the presence of 250 μg Geneticin. Geneticin resistant cells were then selected during two consecutive rounds of cloning by serial limiting dilution with visual inspection. Individual clones were screened for P2X7 expression by applying ATP and recording the resultant uptake of YO-PRO1. Specific cell clones were chosen based on RNA and protein expression. HEK cells stably expressing P2X7 were used to screen drugs using the YO-PRO1 assay. Cells were grown to confluency in adherent culture at 37° C. in a humidified 5% CO2 incubator (split 1/5 every 3-4 days with DMEM, 10% FCS, 1% Penicillin/Streptomycin, 250 μg/ml Geneticin). Adherent cells were detached by incubation with Trypsine (1 ml per 165 cm^2 dish) for 2 minutes, then washed off with 10 ml PBS (without Mg^2+ and Ca^2+), and resuspended in DMEM, 10% FCS, 1% Penicillin/Streptomycin, no Geneticin. […] During this time period, four time points were taken. Each time point comprised the average of several measurements made within a few seconds. […] The FLIPR tetra was equipped with Molecular Devices Screen Works system control software to define and run experimental protocols. […] For IC50 measurements the maximum intensity is plotted against the concentration of compound to determine IC50 values.

Chain of human recombinant P2X7 receptor (Q99572 whole entry): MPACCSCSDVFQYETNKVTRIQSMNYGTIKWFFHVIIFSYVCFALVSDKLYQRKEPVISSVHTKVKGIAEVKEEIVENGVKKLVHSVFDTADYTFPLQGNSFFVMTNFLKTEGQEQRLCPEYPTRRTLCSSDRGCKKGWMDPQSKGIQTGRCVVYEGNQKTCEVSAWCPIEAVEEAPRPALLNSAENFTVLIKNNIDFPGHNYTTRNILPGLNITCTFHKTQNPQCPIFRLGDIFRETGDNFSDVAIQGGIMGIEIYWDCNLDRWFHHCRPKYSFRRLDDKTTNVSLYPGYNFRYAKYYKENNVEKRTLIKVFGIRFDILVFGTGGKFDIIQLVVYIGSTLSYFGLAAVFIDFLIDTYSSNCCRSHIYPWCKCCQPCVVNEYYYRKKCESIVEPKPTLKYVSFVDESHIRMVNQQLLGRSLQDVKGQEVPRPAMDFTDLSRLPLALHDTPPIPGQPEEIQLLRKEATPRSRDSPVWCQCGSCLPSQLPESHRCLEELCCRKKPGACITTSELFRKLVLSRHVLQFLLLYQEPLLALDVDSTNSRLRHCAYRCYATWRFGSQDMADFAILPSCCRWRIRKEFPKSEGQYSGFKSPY

| pIC50 | Structure (SMILES) |
| --- | --- |
| 7.37 | Cc1ccc2c(n1)OCC2NC(=O)Cc1c(C)cc(Cl)cc1Cl (racemic) [Example 133, rac-2-(2,4-Dichloro-6-methyl-phenyl)-N-(6-methyl-2,3-dihydro-furo[2,3-b]pyridin-3-yl)-acetamide] |
| 5.80 | Cc1c(Cl)cc(C(F)(F)F)c(CC(=O)NC2COc3ncccc32)c1F (racemic) [Example 40, rac-2-(4-Chloro-2-fluoro-3-methyl-6-trifluoromethyl-phenyl)-N-(2,3-dihydro-furo[2,3-b]pyridin-3-yl)-acetamide] |
| 7.68 | Cc1ccc2c(n1)OCC2NC(=O)Cc1cccc(C(F)(F)F)c1Cl (racemic) [Example 134, rac-2-(2-Chloro-3-trifluoromethyl-phenyl)-N-(6-methyl-2,3-dihydro-furo[2,3-b]pyridin-3-yl)-acetamide] |
| 7.09 | O=C(Cc1cccc(C(F)(F)F)c1Cl)NC1COc2cnc(Cl)cc21 (racemic) [Example 115, rac-N-(5-Chloro-2,3-dihydro-furo[2,3-c]pyridin-3-yl)-2-(2-chloro-3-trifluoromethyl-phenyl)-acetamide] |
| 7.19 | O=C(Cc1cccc(C(F)(F)F)c1Cl)NC1COc2nc(Cl)ccc21 (racemic) [Example 143, rac-N-(6-Chloro-2,3-dihydro-furo[2,3-b]pyridin-3-yl)-2-(2-chloro-3-trifluoromethyl-phenyl)-acetamide] |

Second part, the molecule before the results:

| Structure (SMILES) | pIC50 |
| --- | --- |
| O=C(NC1COc2ncccc21)C1CCc2cc(Cl)cc(Cl)c21 (stereo not shown) [Example 130, 5,7-dichloro-N-(2,3-dihydrofuro[2,3-b]pyridin-3-yl)-2,3-dihydro-1H-indene-1-carboxamide] | 6.86 |
| Cc1ccc(CC(=O)NC2COc3ncccc32)cc1 (racemic) [Example 14, rac-N-(2,3-Dihydro-furo[2,3-b]pyridin-3-yl)-2-p-tolyl-acetamide] | < 5.26 |
| Cc1cc(Cl)cc(Cl)c1CC(=O)NC1COc2nnccc21 (racemic) [Example 110, rac-2-(2,4-Dichloro-6-methyl-phenyl)-N-(5,6-dihydro-furo[2,3-c]pyridazin-5-yl)-acetamide] | 8.17 |
| COc1ccc(CC(=O)NC2COc3ncccc32)c(OC)c1 (racemic) [Example 19, rac-N-(2,3-Dihydro-furo[2,3-b]pyridin-3-yl)-2-(2,4-dimethoxy-phenyl)-acetamide] | < 5.18 |
| O=C(Cc1cccnc1Cl)NC1CCOc2ncccc21 (racemic) [Example 60, rac-2-(2-Chloro-pyridin-3-yl)-N-(3,4-dihydro-2H-pyrano[2,3-b]pyridin-4-yl)-acetamide] | 6.11 |
| O=C(Cc1c(F)cc(F)cc1F)NC1COc2ncccc21 (racemic) [Example 22, rac-N-(2,3-Dihydro-furo[2,3-b]pyridin-3-yl)-2-(2,4,6-trifluoro-phenyl)-acetamide] | 6.05 |
| O=C(Cc1c(Cl)ccc(Cl)c1F)NC1COc2ncccc21 (racemic) [Example 77, rac-2-(3,6-Dichloro-2-fluoro-phenyl)-N-(2,3-dihydro-furo[2,3-b]pyridin-3-yl)-acetamide] | 5.61 |
| O=C(Cc1ccc(C(F)(F)F)cc1)NC1CCOc2ncccc21 (racemic) [Example 46, rac-N-(3,4-Dihydro-2H-pyrano[2,3-b]pyridin-4-yl)-2-(4-trifluoromethyl-phenyl)-acetamide] | 5.87 |
| O=C(Cc1c(F)cc(Cl)cc1Cl)NC1COc2ncccc21 (racemic) [Example 76, rac-2-(2,4-Dichloro-6-fluoro-phenyl)-N-(2,3-dihydro-furo[2,3-b]pyridin-3-yl)-acetamide] | 7.05 |
| O=C(Cc1cccc(Cl)c1Cl)NC1CCOc2ncccc21 (racemic) [Example 54, rac-2-(2,3-Dichloro-phenyl)-N-(3,4-dihydro-2H-pyrano[2,3-b]pyridin-4-yl)-acetamide] | 7.17 |
| O=C(Cc1cc(F)c(Cl)cc1Cl)NC1CCOc2ncccc21 (racemic) [Example 57, rac-2-(2,4-Dichloro-5-fluoro-phenyl)-N-(3,4-dihydro-2H-pyrano[2,3-b]pyridin-4-yl)-acetamide] | 5.83 |
